Tests used:
[1] = target: Lysine-specific demethylase 5C (Homo sapiens, UniProt P41229)
Description: Inhibition of recombinant JARID1C (unknown origin) incubated for 15 mins prior to substrate addition by AlphaScreen method

[2] = target: Lysine-specific histone demethylase 1A (Homo sapiens, UniProt O60341)
Description: Inhibition of human recombinant His-tagged LSD1 (171 to 836) assessed as hydrogen peroxide formation after 5 mins

[3] = target: T1, Lysine-specific demethylase 4C (Homo sapiens, UniProt Q9H3R0)
T1 sequence (Q9H3R0 whole entry): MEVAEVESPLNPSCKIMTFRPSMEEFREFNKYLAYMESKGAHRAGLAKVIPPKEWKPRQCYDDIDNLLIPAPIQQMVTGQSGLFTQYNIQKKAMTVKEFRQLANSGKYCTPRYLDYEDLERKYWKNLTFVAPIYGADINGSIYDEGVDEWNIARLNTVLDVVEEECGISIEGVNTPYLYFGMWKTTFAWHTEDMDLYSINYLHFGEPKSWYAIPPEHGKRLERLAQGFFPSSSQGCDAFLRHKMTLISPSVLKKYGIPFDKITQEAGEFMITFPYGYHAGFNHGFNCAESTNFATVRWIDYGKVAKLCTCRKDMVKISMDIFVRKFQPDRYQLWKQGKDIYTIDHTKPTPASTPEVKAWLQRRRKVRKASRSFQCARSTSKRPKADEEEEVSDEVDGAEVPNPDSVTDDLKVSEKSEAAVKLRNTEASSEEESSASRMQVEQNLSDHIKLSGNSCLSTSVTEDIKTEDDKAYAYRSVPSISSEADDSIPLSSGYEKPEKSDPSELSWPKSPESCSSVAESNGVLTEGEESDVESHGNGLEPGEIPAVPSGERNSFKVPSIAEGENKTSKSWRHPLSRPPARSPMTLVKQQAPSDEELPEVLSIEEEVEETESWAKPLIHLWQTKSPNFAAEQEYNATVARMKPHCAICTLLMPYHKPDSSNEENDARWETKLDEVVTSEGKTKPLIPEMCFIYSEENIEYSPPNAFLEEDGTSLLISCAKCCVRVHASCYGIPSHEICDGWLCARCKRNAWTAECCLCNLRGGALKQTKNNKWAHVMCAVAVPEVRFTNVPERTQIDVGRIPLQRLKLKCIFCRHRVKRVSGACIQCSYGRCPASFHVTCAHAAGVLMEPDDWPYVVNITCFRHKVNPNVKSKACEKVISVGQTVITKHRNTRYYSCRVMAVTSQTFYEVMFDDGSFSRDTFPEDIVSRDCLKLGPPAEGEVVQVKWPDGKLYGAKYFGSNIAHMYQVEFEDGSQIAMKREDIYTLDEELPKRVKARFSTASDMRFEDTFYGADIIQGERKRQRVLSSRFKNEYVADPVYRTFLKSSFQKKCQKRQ
Description: Inhibition of recombinant JMJD2C (unknown origin) incubated for 15 mins prior to substrate addition by AlphaScreen method

[4] = target: T2, Lysine-specific demethylase 4E (Homo sapiens, UniProt B2RXH2)
T2 sequence (B2RXH2 whole entry): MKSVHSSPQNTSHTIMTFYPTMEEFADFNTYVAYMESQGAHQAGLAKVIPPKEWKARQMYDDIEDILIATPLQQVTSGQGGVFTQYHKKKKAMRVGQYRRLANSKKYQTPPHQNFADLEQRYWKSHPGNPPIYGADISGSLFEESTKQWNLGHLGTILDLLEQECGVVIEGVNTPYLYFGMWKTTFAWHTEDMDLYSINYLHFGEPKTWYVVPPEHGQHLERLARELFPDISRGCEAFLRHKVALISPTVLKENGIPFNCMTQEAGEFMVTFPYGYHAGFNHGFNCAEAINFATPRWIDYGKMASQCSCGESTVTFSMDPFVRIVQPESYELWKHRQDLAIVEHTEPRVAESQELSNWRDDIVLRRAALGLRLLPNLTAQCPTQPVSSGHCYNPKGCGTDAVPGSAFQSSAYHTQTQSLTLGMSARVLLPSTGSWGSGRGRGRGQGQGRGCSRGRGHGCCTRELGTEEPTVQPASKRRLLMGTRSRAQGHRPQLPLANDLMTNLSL
Description: Inhibition of recombinant JMJD2E (unknown origin) incubated for 15 mins prior to substrate addition by AlphaScreen method

[5] = target: T3, Lysine-specific demethylase 2A (Homo sapiens, UniProt Q9Y2K7)
T3 sequence (Q9Y2K7 whole entry): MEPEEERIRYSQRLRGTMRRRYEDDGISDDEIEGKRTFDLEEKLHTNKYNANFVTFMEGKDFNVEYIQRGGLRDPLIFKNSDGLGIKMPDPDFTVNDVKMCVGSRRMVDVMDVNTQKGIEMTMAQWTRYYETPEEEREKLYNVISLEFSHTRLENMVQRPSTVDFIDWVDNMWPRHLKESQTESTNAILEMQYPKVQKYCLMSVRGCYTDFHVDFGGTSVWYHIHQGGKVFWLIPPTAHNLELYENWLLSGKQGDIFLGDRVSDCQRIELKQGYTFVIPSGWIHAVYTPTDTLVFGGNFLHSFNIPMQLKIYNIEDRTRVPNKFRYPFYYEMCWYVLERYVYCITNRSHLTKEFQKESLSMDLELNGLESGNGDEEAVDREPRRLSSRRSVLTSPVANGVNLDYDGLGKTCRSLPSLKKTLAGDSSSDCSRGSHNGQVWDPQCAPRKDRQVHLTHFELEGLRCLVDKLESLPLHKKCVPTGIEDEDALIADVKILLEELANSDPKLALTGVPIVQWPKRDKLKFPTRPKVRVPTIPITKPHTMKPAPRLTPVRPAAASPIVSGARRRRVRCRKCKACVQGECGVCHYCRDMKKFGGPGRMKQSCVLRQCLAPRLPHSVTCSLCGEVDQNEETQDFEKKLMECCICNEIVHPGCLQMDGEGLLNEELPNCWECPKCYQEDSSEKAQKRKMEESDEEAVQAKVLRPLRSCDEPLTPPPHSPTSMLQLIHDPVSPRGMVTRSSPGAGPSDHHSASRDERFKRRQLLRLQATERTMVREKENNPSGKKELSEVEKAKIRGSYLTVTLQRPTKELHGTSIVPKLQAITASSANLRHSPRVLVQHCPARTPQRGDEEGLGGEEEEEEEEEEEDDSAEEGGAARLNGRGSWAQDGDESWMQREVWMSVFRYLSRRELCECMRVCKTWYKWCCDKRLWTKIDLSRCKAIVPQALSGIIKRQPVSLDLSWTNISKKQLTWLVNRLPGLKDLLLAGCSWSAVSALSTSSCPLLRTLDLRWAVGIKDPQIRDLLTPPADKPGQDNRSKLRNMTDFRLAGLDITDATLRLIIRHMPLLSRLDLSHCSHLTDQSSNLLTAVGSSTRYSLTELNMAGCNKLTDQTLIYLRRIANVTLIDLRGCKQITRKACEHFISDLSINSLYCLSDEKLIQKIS
Description: Inhibition of recombinant FBXL11 (unknown origin) incubated for 15 mins prior to substrate addition by AlphaScreen method

Sequence of Lysine-specific demethylase 5C (P41229 whole entry): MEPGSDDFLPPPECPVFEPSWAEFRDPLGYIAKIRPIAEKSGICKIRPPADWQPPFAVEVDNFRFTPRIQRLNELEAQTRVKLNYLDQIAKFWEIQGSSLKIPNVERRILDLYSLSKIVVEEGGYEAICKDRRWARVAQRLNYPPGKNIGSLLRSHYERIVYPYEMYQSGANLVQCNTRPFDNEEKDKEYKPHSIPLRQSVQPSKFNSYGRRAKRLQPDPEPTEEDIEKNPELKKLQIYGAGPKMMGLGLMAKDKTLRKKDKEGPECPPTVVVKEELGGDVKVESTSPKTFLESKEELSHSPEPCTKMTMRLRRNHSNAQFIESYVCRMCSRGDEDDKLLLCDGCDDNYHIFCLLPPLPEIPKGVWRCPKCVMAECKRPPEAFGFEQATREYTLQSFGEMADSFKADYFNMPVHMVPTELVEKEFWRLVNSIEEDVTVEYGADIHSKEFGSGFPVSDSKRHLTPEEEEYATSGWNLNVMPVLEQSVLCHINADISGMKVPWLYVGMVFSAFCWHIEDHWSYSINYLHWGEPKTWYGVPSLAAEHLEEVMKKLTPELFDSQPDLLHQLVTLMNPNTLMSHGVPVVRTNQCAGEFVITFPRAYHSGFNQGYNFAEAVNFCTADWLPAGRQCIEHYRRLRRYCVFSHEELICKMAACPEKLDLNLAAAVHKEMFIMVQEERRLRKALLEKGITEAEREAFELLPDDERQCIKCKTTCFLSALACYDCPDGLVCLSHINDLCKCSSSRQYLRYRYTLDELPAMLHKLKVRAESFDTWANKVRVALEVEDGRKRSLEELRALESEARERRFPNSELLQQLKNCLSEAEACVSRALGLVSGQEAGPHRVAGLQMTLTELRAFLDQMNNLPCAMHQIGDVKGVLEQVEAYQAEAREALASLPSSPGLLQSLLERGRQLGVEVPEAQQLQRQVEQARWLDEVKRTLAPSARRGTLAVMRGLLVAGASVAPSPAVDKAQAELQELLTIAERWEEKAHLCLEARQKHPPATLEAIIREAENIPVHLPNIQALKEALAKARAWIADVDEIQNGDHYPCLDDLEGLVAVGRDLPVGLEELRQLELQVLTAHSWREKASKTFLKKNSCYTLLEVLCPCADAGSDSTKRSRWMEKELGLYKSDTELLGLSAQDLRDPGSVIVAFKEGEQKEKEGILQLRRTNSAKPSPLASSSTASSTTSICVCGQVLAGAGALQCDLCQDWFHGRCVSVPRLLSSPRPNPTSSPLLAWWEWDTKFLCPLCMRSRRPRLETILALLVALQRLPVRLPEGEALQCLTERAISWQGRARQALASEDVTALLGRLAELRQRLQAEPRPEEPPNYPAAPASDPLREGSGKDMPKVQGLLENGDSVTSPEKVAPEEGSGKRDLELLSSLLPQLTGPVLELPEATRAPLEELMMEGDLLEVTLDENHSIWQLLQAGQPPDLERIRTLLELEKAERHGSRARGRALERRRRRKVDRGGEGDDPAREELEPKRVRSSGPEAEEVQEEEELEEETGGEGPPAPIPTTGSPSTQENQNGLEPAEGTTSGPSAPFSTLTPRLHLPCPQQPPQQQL

| Structure (SMILES) | IC50 [1] [µM] | IC50 [2] [µM] | IC50 [3] [µM] | IC50 [4] [µM] | IC50 [5] [µM] |
| --- | --- | --- | --- | --- | --- |
| COC(=O)c1ccnc(-c2cc(C(=O)O)ccn2)c1 | 0.03 | > 100 | 3.5 | 5 | 4.8 |
| Cl.N[C@@H]1C[C@H]1c1ccc(NC(=O)c2ccc(O)c3ncccc23)cc1 (relative stereo) | 26 | < 1 | 1.2 | 3.9 | 7.8 |
| N[C@@H]1C[C@H]1c1ccc(NC(=O)c2ccnc(-c3cc(C(=O)O)ccn3)c2)cc1 (relative stereo) | 0.19 | 2.2 | 0.07 | 0.42 | 0.22 |
| COC(=O)c1ccnc(-c2cc(C(=O)Nc3ccc([C@@H]4C[C@H]4N)cc3)ccn2)c1.Cl (relative stereo) | 8.5 | < 1 | 2.7 | 16 | 12.2 |

Next, values leading:

| IC50 [1] [µM] | IC50 [2] [µM] | IC50 [3] [µM] | IC50 [4] [µM] | IC50 [5] [µM] | Structure (SMILES) |
| --- | --- | --- | --- | --- | --- |
| 35 | < 1 | 4.5 | 5.5 | 12 | N[C@H]1C[C@@H]1c1ccc(NC(=O)CCCNC(=O)c2ccc(O)c3ncccc23)cc1 (relative stereo) |
| 21 | 1.6 | 3.1 | 3.5 | 8.2 | N[C@H]1C[C@@H]1c1ccc(NC(=O)CCCCNC(=O)c2ccc(O)c3ncccc23)cc1 (relative stereo) |
| 37 | 1 | 2.5 | 5.1 | 12 | Cl.N[C@H]1C[C@@H]1c1ccc(NC(=O)CCCCCNC(=O)c2ccc(O)c3ncccc23)cc1 (relative stereo) |

From ChEMBL document CHEMBL3108715, “Pan-histone demethylase inhibitors simultaneously targeting Jumonji C and lysine-specific demethylases display high anticancer activities” (J Med Chem, 2014)
